Results: patent US10188693B2, “Methods for treatment of atherosclerosis” (Stealth BioTherapeutics Corp, priority 2012, dated 2019)
“And” between values parts separate entries of the source, which are not always exact repeats. Equal values may be shown once. “Also recorded” adds a separate entry of the source.

Experiments:
[1] = tested on: Apoprotein E deficient mice; assay: En face analysis of atherosclerotic lesions of the thoracic aorta (Sudan IV, % of aortic surface covered by lipid); assay type: in vivo; details: 12 weeks
From the text: (§1) Apoprotein E deficient mice (Jackson Laboratories, 600 Main Street, Bar Harbor, Me.) were used in this study. The mice were male, 7-8 weeks of age, and between 18-20 g in weight. An initial total cholesterol measurement was made on 30 mice, and the mice were grouped into two groups of 15 to match the total cholesterol measurements. Both groups were fed a “western diet” (40 kcal % butterfat, 0.15% [wt/wt] cholesterol, Harlan Teklad diet TD-88137). Starting at t=0, the control group of 15 mice received vehicle only (phosphate buffered saline at pH 7.4), while the test group of 15 mice received aromatic-cationic peptide reconstituted in phosphate buffered saline. Body weights of the mice were recorded weekly, and mortality checks were performed daily.
(§2) The aromatic-cationic peptide D-Arg-2′6′-Dmt-Lys-Phe-NH2 (sterile lyophilized powder, reconstituted in phosphate buffered saline) was tested. For the 12-week study, test mice received a single, daily dose of the peptide, subcutaneously at 1 mg/kg. Control mice received a single daily dose of vehicle.
(§3) Histopathology/Histomorphometery: Following the 12 week treatment, mice were euthanized within 48 hours after the last dose by CO2 asphyxiation and the vascular tree was perfused with 5 mL of phosphate buffered saline (pH 7.4). The aorta and aortic sinus were removed for examination. Thoracic aorta were isolated, trimmed of fat, and fixed in formalin for 48-72 hours before analysis. For en face analysis, aortas were laid out and pinned on black matrix for photography, and stained with Sudan IV. Vessels were imaged for surface involvement using a Nikon computerized image analysis system and the percent of the aortic surface area covered by lipid was calculated. Two determinations were done for each image (Quan 1 and Quan 2), and the average was computed. The data were then computed by group and statistically analyzed. Following staining and morphometric analysis, total lipids were extracted from the aortas using the Bligh-Dyer method. WAKO Diagnostics kits (WAKO Diagnostics, Inc., 1600 Bellwood Road Richmond, Va. 23237-1326) were then used to evaluate total cholesterol, free cholesterol, and cholesterol ester. Cholesterol leves were quantitate nad expressed relative to protein levels. Values are expressed as μg lipid per mg protein (see e.g., FIG. 1).

[2] = tested on: Apoprotein E deficient mice; assay: Total lesion area in aortic root 300 μm across aortic valve (aortic sinus cryosections, lipid staining); assay type: in vivo; set-up: Area, total lesion area in aortic root / Area, total lesion area in aortic root, AVE: unit not given here; details: 12 weeks
From the text: as §1
The aromatic-cationic peptide D-Arg-2′6′-Dmt-Lys-Phe-NH2 (sterile lyophilized powder, reconstituted in phosphate buffered saline) was tested. […]
For the aortic sinus, the heart and approximately 5 mm of the ascending aorta was cut from the remainder of the aorta. […] The sinus was imaged at 5 step levels in the region of interest, i.e., the aortic root, for a total distance of 300 μm and the lipid-staining areas and measured (total cross sectional area) using a Nikon computerized image analysis system. The data were then computed by group and statistically analyzed.

Human skin fibroblasts = assay: Coenzyme Q10 levels in fibroblasts treated with peptide; assay type: cell-based; details: 10 nM peptide, 16-24 hours or 5 days, versus saline treated fibroblasts; listed as aromatic-cationic peptide
Protocol: Fibroblasts were treated with an aromatic-cationic peptide of the present disclosure, and levels of coenzyme Q10 were evaluated.
Human skin fibroblasts from normal subjects were incubated under standard tissue culture medium containing high glucose levels to support anaerobic conditions. At approximately 90% confluence, cells were incubated in the presence of 10 nM D-Arg-2′6′-Dmt-Lys-Phe-NH2 for a period of either one day (24 h) or five days as shown in Table 11 below. The culture medium was not changed during the incubation period. Cells were harvested and the cellular level of CoQ was determined using methods known in the art. Data represents the average n=3-6.

[3] = tested on: Apoprotein E deficient mice; assay: Thoracic aorta lipids (Bligh-Dyer extraction, WAKO kits; TC, FC, CE per mg protein); assay type: in vivo; details: 12 weeks
From the text: as §1, §2, §3

[4] = tested on: Apoprotein E deficient mice; assay: Plasma lipoprotein cholesterol by gel electrophoresis (Spife; HDL-C, LDL-C, VLDL-C); assay type: in vivo; details: for HDL-C / LDL-C / VLDL-C: plasma, Spife (electrophoresis)
From the text: as §1, §2
Experimental Protocol/Data Collection. Blood was collected every four weeks (orbital plexis) under isoflurane anesthesia (3%) and blood lipids were determined. Plasma lipid analysis was conducted for both groups at t=0, 4, […], 8, and 12 weeks. Plasma lipid analysis using an autoanalyzer included total cholesterol (TC), triglycerides (Trigs), phospholipids (PL), free cholesterol (FC), and cholesterol ester (CE, by calculation). Gel electrophoresis was used to measure levels of high-density lipoprotein cholesterol (HDL-C), low-density lipoprotein cholesterol (LDL-C), and very low-density lipoprotein cholesterol (VLDL-C).

[5] = individual mouse, 1 mg/kg subcutaneously daily, western diet, 1 mg/kg
[6] = treated versus vehicle, listed as aromatic-cationic peptide
[7] = group average, 1 mg/kg subcutaneously daily
[8] = individual mouse, 1 mg/kg subcutaneously daily, μg lipid per mg protein, listed as Peptide, 1 mg/kg
[9] = Week 0 (t=0, start of dosing), individual mouse of test group
[10] = Week 0, group average of test group
[11] = at 4, 8 and 12 week time points, versus vehicle
[12] = week 4, individual test mouse (sample #16-30), listed as aromatic-cationic peptide
[13] = week 8, individual test mouse (sample #16-30), listed as aromatic-cationic peptide
[14] = week 12, AVE of 15 test animals
[15] = week 12, individual test mouse (sample #16-30), listed as aromatic-cationic peptide

Substance: D-Arg-2′6′-Dmt-Lys-Phe-NH2
- Ave (average % of the surface of the aortas showing lesions) ([1]; group average of 15 test mice, 1 mg/kg subcutaneously daily): 5.328%
- Ave. % of Lesion ([1]; individual mouse, average of Quan 1 and Quan 2, 1 mg/kg subcutaneously daily, 1 mg/kg): 2.615% and 0.892% and 9.027% and 3.019% and 7.009% and 4.833% and 1.996% and 1.205% and 9.948% and 2.763% and 6.814% and 4.734% and 0.834% and 11.239% and 12.990%
- Quan 1 (first determination of % of the aortic surface covered by lipid) [1, 5]: 2.562% and 0.914% and 8.769% and 2.832% and 7.137% and 5.198% and 2.128% and 1.388% and 10.000% and 2.990% and 7.091% and 4.700% and 0.775% and 11.589% and 13.857%
- Quan 2 (second determination of % of the aortic surface covered by lipid) [1, 5]: 2.667% and 0.870% and 9.284% and 3.205% and 6.881% and 4.468% and 1.863% and 1.021% and 9.895% and 2.536% and 6.536% and 4.768% and 0.892% and 10.888% and 12.122%
- atherosclerotic lesions in the aorta (% lesion area), in words [1, 6]: reduces; also recorded: lower
- Area, total lesion area in aortic root, AVE ([2]; group average, 300 μm across aortic valve, 1 mg/kg subcutaneously daily): 282.72
- total (mean) lesion area in aortic root, in words [2, 6]: reduces; also recorded: lower
- coenzyme Q10 levels in fibroblast cells, in words (Human skin fibroblasts): increased
- CE (cholesterol ester), thoracic aorta, AVE [3, 7]: 14.6 µg/mg
- FC (free cholesterol), thoracic aorta, AVE [3, 7]: 5.7 µg/mg
- TC (total cholesterol), thoracic aorta, AVE [3, 7]: 20.4 µg/mg
- CE (cholesterol ester), thoracic aorta [3, 8]: 13.8 μg/mg and 2.7 μg/mg and 30.3 μg/mg and 14.7 μg/mg and 30.7 μg/mg and 14.1 μg/mg and 4.6 μg/mg (2×) and 5.6 μg/mg (2×) and 28.5 μg/mg and 21.3 μg/mg and 18.6 μg/mg and 11.4 μg/mg and 13.0 μg/mg
- FC (free cholesterol), thoracic aorta [3, 8]: 7.6 μg/mg (2×) and 4.0 μg/mg and 5.1 μg/mg and 3.0 μg/mg (2×) and 8.1 μg/mg and 2.7 μg/mg and 3.5 μg/mg and 14.6 μg/mg and 6.6 μg/mg and 3.8 μg/mg and 3.6 μg/mg and 3.3 μg/mg and 9.5 μg/mg
- TC (total cholesterol), thoracic aorta [3, 8]: 21.4 µg/mg and 6.7 µg/mg and 35.4 µg/mg and 17.7 µg/mg and 38.8 µg/mg and 16.8 µg/mg and 8.1 µg/mg and 20.1 µg/mg and 35.1 µg/mg and 9.4 µg/mg and 24.9 µg/mg and 21.7 µg/mg and 7.9 µg/mg and 19.0 µg/mg and 22.5 µg/mg
- cholesterol esters in the thoracic aorta, in words [3, 6]: lower
- free cholesterol in the thoracic aorta, in words [3, 6]: lower
- total cholesterol in the thoracic aorta, in words [3, 6]: lower
- HDL-C, plasma [4, 9]: 19 mg/dL and 34 mg/dL and 32 mg/dL and 37 mg/dL and 35 mg/dL and 21 mg/dL and 38 mg/dL and 41 mg/dL and 6 mg/dL and 31 mg/dL and 26 mg/dL and 39 mg/dL and 22 mg/dL and 29 mg/dL and 8 mg/dL
- LDL-C, plasma [4, 9]: 258 mg/dL and 260 mg/dL and 307 mg/dL and 245 mg/dL and 268 mg/dL and 295 mg/dL and 304 mg/dL and 474 mg/dL and 287 mg/dL and 352 mg/dL and 380 mg/dL and 481 mg/dL and 410 mg/dL and 432 mg/dL and 773 mg/dL
- VLDL-C, plasma [4, 9]: 25 mg/dL (2×) and 23 mg/dL and 37 mg/dL and 20 mg/dL (2×) and 19 mg/dL and 27 mg/dL and 36 mg/dL and 15 mg/dL and 26 mg/dL and 31 mg/dL and 24 mg/dL and 28 mg/dL and 29 mg/dL
- HDL-C, plasma, AVE [4, 10]: 28 mg/dL
- LDL-C, plasma, AVE [4, 10]: 368 mg/dL
- VLDL-C, plasma, AVE [4, 10]: 26 mg/dL
- plasma LDL-C, in words [4, 11]: reduces
- plasma VLDL-C, in words [4, 11]: reduces
- HDL-C ([4]; week 4, AVE of 15 test animals): 25 mg/dL
- LDL-C ([4]; week 4, AVE of 15 test animals): 940 mg/dL
- VLDL-C ([4]; week 4, AVE of 15 test animals): 33 mg/dL
- HDL-C [4, 12]: 18 mg/dL and 20 mg/dL (3×) and 0 mg/dL and 13 mg/dL and 7 mg/dL and 23 mg/dL and 32 mg/dL (3×) and 15 mg/dL and 45 mg/dL and 44 mg/dL and 49 mg/dL
- LDL-C [4, 12]: 745 mg/dL and 866 mg/dL and 918 mg/dL and 1120 mg/dL and 982 mg/dL and 648 mg/dL and 893 mg/dL and 975 mg/dL and 770 mg/dL and 766 mg/dL and 966 mg/dL and 1147 mg/dL and 874 mg/dL and 1171 mg/dL and 1254 mg/dL
- VLDL-C [4, 12]: 35 mg/dL (2×) and 37 mg/dL (2×) and 19 mg/dL and 44 mg/dL (2×) and 18 mg/dL and 23 mg/dL and 39 mg/dL and 41 mg/dL and 28 mg/dL and 31 mg/dL and 30 mg/dL and 32 mg/dL
- HDL-C ([4]; week 8, AVE of 15 test animals): 32 mg/dL
- LDL-C ([4]; week 8, AVE of 15 test animals): 1166 mg/dL
- VLDL-C ([4]; week 8, AVE of 15 test animals): 84 mg/dL
- HDL-C [4, 13]: 42 mg/dL and 34 mg/dL and 27 mg/dL and 33 mg/dL and 19 mg/dL (2×) and 8 mg/dL and 45 mg/dL and 16 mg/dL and 32 mg/dL and 41 mg/dL (2×) and 25 mg/dL and 43 mg/dL and 57 mg/dL
- LDL-C [4, 13]: 1119 mg/dL and 897 mg/dL and 1392 mg/dL and 1071 mg/dL and 1415 mg/dL and 901 mg/dL and 875 mg/dL and 1378 mg/dL and 922 mg/dL and 856 mg/dL and 1317 mg/dL and 1320 mg/dL and 1025 mg/dL and 1382 mg/dL and 1621 mg/dL
- VLDL-C [4, 13]: 101 mg/dL and 73 mg/dL and 86 mg/dL and 79 mg/dL (2×) and 112 mg/dL and 34 mg/dL and 88 mg/dL and 69 mg/dL and 59 mg/dL and 93 mg/dL and 74 mg/dL and 80 mg/dL and 109 mg/dL and 119 mg/dL
- HDL-C [4, 14]: 21 mg/dL
- LDL-C [4, 14]: 939 mg/dL
- VLDL-C [4, 14]: 44 mg/dL
- HDL-C [4, 15]: 38 mg/dL and 20 mg/dL (2×) and 10 mg/dL and 41 mg/dL and 21 mg/dL and 5 mg/dL and 31 mg/dL (2×) and 2 mg/dL (2×) and 40 mg/dL and 28 mg/dL and 1 mg/dL and 23 mg/dL
- LDL-C [4, 15]: 821 mg/dL and 485 mg/dL and 854 mg/dL and 852 mg/dL and 1328 mg/dL and 693 mg/dL and 611 mg/dL and 692 mg/dL and 962 mg/dL and 896 mg/dL and 1275 mg/dL and 1218 mg/dL and 505 mg/dL and 1203 mg/dL and 1688 mg/dL
- VLDL-C [4, 15]: 39 mg/dL and 35 mg/dL and 21 mg/dL (2×) and 43 mg/dL and 71 mg/dL and 32 mg/dL and 33 mg/dL and 26 mg/dL and 63 mg/dL and 76 mg/dL and 36 mg/dL and 30 mg/dL and 83 mg/dL and 46 mg/dL
